Measurements from patent publication US8008306B2, “Quinoline compounds” (Kowa Company, Ltd., priority 2008, dated 2011).

Legend:
[1] = molecular target: T1, LXRβ/GAL4 hybrid (LBD of human LXRβ), compared with LXRα/GAL4 (Homo sapiens, UniProt P55055); test: Transactivation assay (GAL4-responsive luciferase reporter); format: cell-based; conditions: CHOK-1 cells stably expressing LXRα/GAL4 or LXRβ/GAL4 and pG5luc; 0.01-10 μM, 24 hours; % eff relative to T0901317 at 10 μM = 100; data in FIGS. only
T1 construct: expressed in transfected cells; host or cells: CHOK-1 cells stably expressing the hybrid and pG5luc
T1 sequence (P55055 222-460 limits assumed): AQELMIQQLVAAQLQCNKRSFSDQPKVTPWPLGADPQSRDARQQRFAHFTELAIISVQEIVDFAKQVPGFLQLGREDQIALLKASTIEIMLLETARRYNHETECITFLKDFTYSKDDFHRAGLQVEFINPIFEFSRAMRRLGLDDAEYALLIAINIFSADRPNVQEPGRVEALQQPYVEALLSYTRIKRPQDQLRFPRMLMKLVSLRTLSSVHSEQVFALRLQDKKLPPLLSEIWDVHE
From the text: The ligand-binding domain (LBD) of a human LXRα and LXRβ cDNA was inserted adjacent to an yeast GAL4-transcription factor DNA-binding domain (DBD) of a mammal expression vector pBIND (Promega) to prepare an expression construct, thereby to produce pBIND-LXRα/GAL4 and pBIND-LXRβ/GAL4, respectively. PG5luc, a GAL4-responsive reporter construct, is a known vector that is available from Promega, and contains 5 copies of GAL4-response element located adjacent to the promoter as well as a luciferase reporter gene.
An LXRα/GAL4 or LXRβ/GAL4 hybrid and GAL4-responsive reporter vector pG5luc-stable-expression CHOK-1 cells were seeded under 5% CO2 wet atmosphere at 37° C., at 20,000 cells/well on a 96-well plate containing HAM-F12 medium containing 10% […] bovine fetal serum, 100 units/ml of penicillin G, and 100 μg/ml of streptomycin sulfate. […] By using Bright-Glo (Promega) as a luciferase assay substrate, and measuring the luminescence intensity with luminometer LB960 (Berthold Technologies), the effect of the test compound on the activation of luciferase transcription via the LXRα- or LXRβ-LBD was measured. At the same time, T0901317 (the compound of Example 12 of WO2000/54759) and WAY-254011 (compound 4 of Hu et al., Bioorg. Med. Chem. Lett., 18, pp. 54-59, 2008) were assessed as comparative compounds. […]

LXRβ (versus LXRα) = molecular target: T2, LXRβ (versus LXRα) (Homo sapiens, UniProt P55055); conditions: from Hu et al., Bioorg. Med. Chem. Lett., 18, pp. 54-59, 2008; cited from earlier work
T2 sequence (P55055 1-460): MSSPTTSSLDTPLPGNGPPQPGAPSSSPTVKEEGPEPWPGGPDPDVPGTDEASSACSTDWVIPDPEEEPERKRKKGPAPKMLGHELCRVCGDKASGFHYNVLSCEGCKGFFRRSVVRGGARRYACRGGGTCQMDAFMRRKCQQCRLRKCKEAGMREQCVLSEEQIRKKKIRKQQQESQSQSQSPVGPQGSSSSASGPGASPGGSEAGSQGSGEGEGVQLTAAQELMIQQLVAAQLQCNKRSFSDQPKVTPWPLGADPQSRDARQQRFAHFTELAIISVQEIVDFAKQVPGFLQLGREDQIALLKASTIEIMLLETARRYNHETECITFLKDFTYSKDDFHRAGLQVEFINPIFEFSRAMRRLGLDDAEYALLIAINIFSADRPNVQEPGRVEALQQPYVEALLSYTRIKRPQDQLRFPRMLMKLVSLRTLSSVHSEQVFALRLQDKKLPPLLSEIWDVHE

O=C(O)Cc1ccc(COc2cccc(-c3c(Cc4ccccc4)cnc4c(C(F)(F)F)cccc34)c2)cc1 [WAY-254011]
LXRβ-selective agonist effect (luciferase activity via LXRα- or LXRβ-LBD) [1]: not found to have an LXRβ-selective agonist effect | LXRβ-selective binding affinity (α/β ratio) (LXRβ (versus LXRα)): 1 to 5
